According to ChEMBL document CHEMBL5338744, “Development and Characterization of Benzoselenazole Derivatives as Potent and Selective c-MYC Transcription Inhibitors” (J Med Chem, 2023):
Activity calls are given as the source filed them. The rule behind the calls is not given here.

Legend:
HCT-116 = test: Cytotoxicity against human HCT-116 cells assessed as reduction in cell viability incubated for 48 hrs by MTT assay; format: functional, cell-based; conditions: HCT-116, 48 h
HepG2 [1] = test: Cytotoxicity against human HepG2 cells assessed as reduction in cell viability incubated for 48 hrs by MTT assay; format: functional, cell-based; conditions: HepG2, 48 h
[2] = Cytotoxicity against human NCM460 cells assessed as reduction in cell viability incubated for 48 hrs by MTT assay; format: toxicity, cell-based
HepG2 [3] = test: Inhibition of c-MYC transcription in human HepG2 cells up to 10 uM incubated for 48 hrs by RT-qPCR analysis; format: functional, cell-based
HepG2 [4] = test: Downregulation of c-MYC expression level in human HepG2 cells incubated for 48 hrs by Western blotting analysis; format: functional, cell-based; conditions: dose 0-10 µM
Quadruplex DNA [5] = test: Binding affinity to G-quadruplex DNA pu22 mutant (unknown origin) by fluorescence spectroscopic analysis; format: nucleic-acid assay
Quadruplex DNA [6] = test: Binding affinity to G-quadruplex DNA htg22 (unknown origin) by fluorescence spectroscopic analysis; format: nucleic-acid assay
[7] = Cytotoxicity against human L02 cells assessed as reduction in cell viability incubated for 48 hrs by MTT assay; format: toxicity, cell-based
Quadruplex DNA [8] = test: Binding affinity to G-quadruplex DNA pu22 (unknown origin) by fluorescence spectroscopic analysis; format: nucleic-acid assay
Quadruplex DNA [9] = test: Binding affinity to G-quadruplex DNA HRAS (unknown origin) by fluorescence spectroscopic analysis; format: nucleic-acid assay
Quadruplex DNA [10] = test: Binding affinity to G-quadruplex DNA ds26 (unknown origin) by fluorescence spectroscopic analysis; format: nucleic-acid assay
Quadruplex DNA [11] = test: Binding affinity to G-quadruplex DNA c-kit1 (unknown origin) by fluorescence spectroscopic analysis; format: nucleic-acid assay
Quadruplex DNA [12] = test: Binding affinity to G-quadruplex DNA pu22 (unknown origin) assessed as melting temperature at 10 uM by circular dichroism analysis
Quadruplex DNA [13] = test: Binding affinity to G-quadruplex DNA VEGF (unknown origin) by fluorescence spectroscopic analysis; format: nucleic-acid assay

Structure (SMILES) | IC50 (HCT-116) | IC50 (HepG2 [1]) | IC50 at 48 h [2] | other results
CN(C)CCCn1c2ccccc2c2cc(/C=C/c3nc4ccccc4s3)ccc21 | 42.9 µM | 21.3 µM | > 100 µM | –
CCn1c2ccccc2c2cc(/C=C/c3oc4ccc5ccccc5c4[n+]3C)ccc21 | 26.3 µM | 93.3 µM | > 100 µM | –
CCn1c2ccccc2c2cc(/C=C/c3sc4ccccc4[n+]3C)ccc21 | 4 µM | 5.7 µM | 39.3 µM | –
CCn1c2ccccc2c2cc(/C=C/c3nc4ccccc4s3)ccc21 | > 100 µM | 52.1 µM | > 100 µM | –
CCn1c2ccccc2c2cc(/C=C/c3[se]c4ccccc4[n+]3C)ccc21 | 3.4 µM | 1.6 µM | 29.2 µM | inhibition (HepG2 [3]): Active; Activity (HepG2 [4]): Dose-Dependent Effect; Kd (Quadruplex DNA [5]): > 20 µM; Kd (Quadruplex DNA [6]): 8.8 µM; IC50 at 48 h [7]: 27.3 µM; Kd (Quadruplex DNA [8]): 0.4 µM; Kd (Quadruplex DNA [9]): > 20 µM; Kd (Quadruplex DNA [10]): > 20 µM; Kd (Quadruplex DNA [11]): 6.5 µM; Tm (Quadruplex DNA [12]): 80.1 °C; Kd (Quadruplex DNA [13]): 7.6 µM
CCn1c2ccccc2c2cc(/C=C/c3nc4c(ccc5ccccc54)o3)ccc21 | > 100 µM | > 100 µM | > 100 µM | –
C[n+]1c(/C=C/c2ccc3c(c2)c2ccccc2n3Cc2ccccc2)sc2ccccc21 | 4.1 µM | 7.4 µM | 45.6 µM | –
CCn1c2ccccc2c2cc(/C=C/c3nc4c(ccc5ccccc54)[se]3)ccc21 | > 100 µM | > 100 µM | > 100 µM | –
CN(C)CCCn1c2ccccc2c2cc(/C=C/c3oc4ccccc4[n+]3C)ccc21 | 4.7 µM | 5.9 µM | 35.6 µM | –
CCn1c2ccccc2c2cc(/C=C/c3nc4ccccc4o3)ccc21 | 32.1 µM | 37.7 µM | > 100 µM | –
CCn1c2ccccc2c2cc(/C=C/c3[se]c4ccc5ccccc5c4[n+]3C)ccc21 | 9 µM | 4.5 µM | 42.5 µM | –
CN(C)CCCn1c2ccccc2c2cc(/C=C/c3[se]c4ccccc4[n+]3C)ccc21 | 15 µM | 26.2 µM | 87.7 µM | –
